Laboratory results as given in PubChem BioAssay AID192 (DTP/NCI, 2004).
Where “and” joins values, the source holds several entries; their conditions need not be identical. Equal values may be shown once. Toxic doses and inconclusive results are not listed. Square brackets hold non-standard residues; d marks the D form. Peptide text beside a SMILES is read from it. ξ: configuration not given here. ξE = NC(CCC(=O)O)C(=O)O

Test system: BDF1 mice, B16 melanoma ip, median survival T/C
Assay: NCI In Vivo Anticancer Drug Screen. Data for tumor model B16 Melanoma (intraperitoneal) in B6D2F1 (BDF1) mice
Details: endpoint: median survival time, higher = longer survival
Method in brief: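 Compounds were tested in mice carrying transplantable tumors. Survival or tumor size was recorded, and each value is the treated-group measurement (T) divided by that of the vehicle-treated control group (C).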

[1] = dose: 0.39 mg/kg/injection, schedule: Q01DX009 (ip), vehicle: saline
[2] = dose: 0.78 mg/kg/injection, schedule: Q01DX009 (ip), vehicle: saline
[3] = dose: 1.56 mg/kg/injection, schedule: Q01DX009 (ip), vehicle: saline
[4] = dose: 6.25 mg/kg/injection, schedule: Q01DX009 (ip), vehicle: saline
[5] = dose: 12.5 mg/kg/injection, schedule: Q01DX009 (ip), vehicle: saline
[6] = dose: 25.0 mg/kg/injection, schedule: Q01DX009 (ip), vehicle: saline
[7] = dose: 50.0 mg/kg/injection, schedule: Q01DX009 (ip), vehicle: saline
[8] = dose: 50.0 mg/kg/injection, schedule: Q01DX009 (ip), vehicle: Klucel (hydroxypropylcellulose) (HPC)
[9] = dose: 100.0 mg/kg/injection, schedule: Q01DX009 (ip), vehicle: Klucel (hydroxypropylcellulose) (HPC)
[10] = dose: 200.0 mg/kg/injection, schedule: Q01DX009 (ip), vehicle: Klucel (hydroxypropylcellulose) (HPC)
[11] = dose: 25.0 mg/kg/injection, schedule: Q01DX009 (ip), vehicle: Klucel (hydroxypropylcellulose) (HPC)
[12] = dose: 12.5 mg/kg/injection, schedule: Q01DX009 (ip), vehicle: saline with Tween-80
[13] = dose: 25.0 mg/kg/injection, schedule: Q01DX009 (ip), vehicle: saline with Tween-80
[14] = dose: 50.0 mg/kg/injection, schedule: Q01DX009 (ip), vehicle: saline with Tween-80
[15] = dose: 100.0 mg/kg/injection, schedule: Q01DX009 (ip), vehicle: saline with Tween-80
[16] = dose: 200.0 mg/kg/injection, schedule: Q01DX009 (ip), vehicle: saline with Tween-80
[17] = dose: 12.5 mg/kg/injection, schedule: Q01DX009 (ip), vehicle: Klucel (hydroxypropylcellulose) (HPC)
[18] = dose: 400.0 mg/kg/injection, schedule: Q01DX009 (ip), vehicle: Klucel (hydroxypropylcellulose) (HPC)
[19] = dose: 100.0 mg/kg/injection, schedule: Q01DX009 (ip), vehicle: saline
[20] = dose: 200.0 mg/kg/injection, schedule: Q01DX009 (ip), vehicle: saline
[21] = dose: 400.0 mg/kg/injection, schedule: Q01DX009 (ip), vehicle: saline

CN(C)CCC=C1c2ccccc2C=Cc2ccccc21
T/C [1]: 96 % of control | T/C [2]: 102 % of control | T/C [3]: 98 % of control and 97 % of control | T/C (dose: 3.12 mg/kg/injection, schedule: Q01DX009 (ip), vehicle: saline): 96 % of control and 100 % of control | T/C [4]: 86 % of control and 123 % of control and 93 % of control | T/C [5]: 111 % of control | T/C [6]: 118 % of control and 90 % of control | T/C [7]: 101 % of control

CCCCNC(=O)OCC(C)(CCC)COC(N)=O (centres undefined)
T/C [8]: 92 % of control | T/C [9]: 92 % of control | T/C [10]: 94 % of control

CC(=O)c1ccccc1I
T/C [11]: 102 % of control and 113 % of control | T/C [8]: 105 % of control and 106 % of control | T/C [9]: 105 % of control and 106 % of control | T/C [10]: 102 % of control and 106 % of control

C=C1C(=O)OC2C1C(OC(=O)/C(C)=C/COC(C)=O)CC1(CO1)C1C(O)C=C(C)C21 (centres undefined)
T/C (dose: 6.25 mg/kg/injection, schedule: Q01DX009 (ip), vehicle: other): 103 % of control | T/C (dose: 12.5 mg/kg/injection, schedule: Q01DX009 (ip), vehicle: other): 100 % of control | T/C (dose: 25.0 mg/kg/injection, schedule: Q01DX009 (ip), vehicle: other): 104 % of control

CC(C)COC(=O)c1ccc(NC(=O)Nc2ccccc2Cl)cc1
T/C [12]: 100 % of control | T/C [13]: 93 % of control | T/C [14]: 97 % of control

OC1(c2ccccc2)c2ccc(Br)cc2-c2cc(Br)ccc21
T/C [15]: 92 % of control | T/C [16]: 88 % of control

NCc1c(Cl)c(Cl)c(CN)c(Cl)c1Cl
T/C [13]: 100 % of control | T/C [14]: 102 % of control | T/C [15]: 100 % of control

COc1cc([C@@H]2c3cc4c(c(O)c3C[C@H]3COC(=O)[C@@H]32)OCO4)cc(OC)c1OC
T/C (dose: 0.12 mg/kg/injection, schedule: Q01DX009 (ip), vehicle: suspension in saline): 100 % of control | T/C (dose: 0.25 mg/kg/injection, schedule: Q01DX009 (ip), vehicle: suspension in saline): 102 % of control | T/C (dose: 0.5 mg/kg/injection, schedule: Q01DX009 (ip), vehicle: saline): 109 % of control | T/C (dose: 0.5 mg/kg/injection, schedule: Q01DX009 (ip), vehicle: suspension in saline): 120 % of control | T/C (dose: 1.0 mg/kg/injection, schedule: Q01DX009 (ip), vehicle: saline): 114 % of control | T/C (dose: 1.0 mg/kg/injection, schedule: Q01DX009 (ip), vehicle: suspension in saline): 121 % of control

CC(Br)C(=O)NC(CO)C(=O)O (centres undefined)
T/C [15]: 94 % of control | T/C (dose: 100.0 mg/kg/injection, schedule: Q04DX003 (ip), vehicle: saline with Tween-80): 108 % of control | T/C [16]: 99 % of control | T/C (dose: 200.0 mg/kg/injection, schedule: Q04DX003 (ip), vehicle: saline with Tween-80): 113 % of control | T/C (dose: 400.0 mg/kg/injection, schedule: Q01DX009 (ip), vehicle: saline with Tween-80): 86 % of control | T/C (dose: 400.0 mg/kg/injection, schedule: Q04DX003 (ip), vehicle: saline with Tween-80): 108 % of control

CC(C)(O)C(C)(O)c1cccc(Cl)c1 (centres undefined)
T/C [17]: 107 % of control | T/C [11]: 102 % of control | T/C [8]: 88 % of control

NC(=O)CC(NC(=O)OCc1ccccc1)C(N)=O (centres undefined)
T/C (dose: 100.0 mg/kg/injection, schedule: Q04DX003 (ip), vehicle: Klucel (hydroxypropylcellulose) (HPC)): 100 % of control | T/C (dose: 200.0 mg/kg/injection, schedule: Q04DX003 (ip), vehicle: Klucel (hydroxypropylcellulose) (HPC)): 87 % of control | T/C (dose: 400.0 mg/kg/injection, schedule: Q04DX003 (ip), vehicle: Klucel (hydroxypropylcellulose) (HPC)): 87 % of control

Cc1ccc(Cl)cc1NC(=O)Nc1ccc(Cl)c(Cl)c1
T/C (dose: 75.0 mg/kg/injection, schedule: Q01DX009 (ip), vehicle: Klucel (hydroxypropylcellulose) (HPC)): 97 % of control | T/C (dose: 150.0 mg/kg/injection, schedule: Q01DX009 (ip), vehicle: Klucel (hydroxypropylcellulose) (HPC)): 92 % of control

CCO/C([O-])=C/[P+](c1ccccc1)(c1ccccc1)c1ccccc1
T/C [17]: 103 % of control | T/C [11]: 103 % of control | T/C [8]: 100 % of control

O=C(NNCc1ccccc1)C(O)C(O)C(O)CO (centres undefined)
T/C [11]: 95 % of control | T/C [8]: 95 % of control | T/C [9]: 92 % of control | T/C [10]: 100 % of control | T/C [18]: 95 % of control

COC(CCCl)c1ccc(Cl)cc1 (centres undefined)
T/C [14]: 102 % of control | T/C [15]: 97 % of control | T/C [16]: 87 % of control

CC1=NCCc2c1cc1c([nH]c3ccccc31)c2C
T/C [12]: 105 % of control | T/C [13]: 110 % of control

Cn1c(=O)c2c(ncn2C)n(C)c1=O
T/C [7]: 116 % of control | T/C [19]: 103 % of control | T/C [20]: 109 % of control

NCCN
T/C (dose: 177.0 mg/kg/injection, schedule: Q01DX009 (ip), vehicle: saline): 115 % of control | T/C (dose: 266.0 mg/kg/injection, schedule: Q01DX009 (ip), vehicle: saline): 96 % of control | T/C [21]: 105 % of control

C1=NCCCN1
T/C [6]: 114 % of control | T/C [7]: 117 % of control | T/C [19]: 113 % of control

NCC(=O)NCC(=O)NC(CCC(=O)O)C(=O)O (stereo not drawn) (H-Gly-Gly-[ξE]-OH)
T/C [7]: 101 % of control | T/C [19]: 97 % of control | T/C [20]: 94 % of control | T/C [21]: 94 % of control

COC(=O)[CH](C[N+](=O)[O-])[Hg][Cl] (centres undefined)
T/C (dose: 3.2 mg/kg/injection, schedule: Q01DX009 (ip), vehicle: saline with Tween-80): 95 % of control | T/C [4]: 102 % of control | T/C (dose: 6.3 mg/kg/injection, schedule: Q01DX009 (ip), vehicle: saline with Tween-80): 91 % of control | T/C [12]: 89 % of control | T/C [5]: 93 % of control | T/C (dose: 12.5 mg/kg/injection, schedule: Q04DX003 (ip), vehicle: Klucel (hydroxypropylcellulose) (HPC)): 94 % of control | T/C [6]: 89 % of control | T/C (dose: 25.0 mg/kg/injection, schedule: Q04DX003 (ip), vehicle: Klucel (hydroxypropylcellulose) (HPC)): 92 % of control

Cc1cc(C)[c]([Hg][Cl])c(C)c1
T/C (dose: 1.5 mg/kg/injection, schedule: Q01DX009 (ip), vehicle: saline with Tween-80): 110 % of control | T/C (dose: 3.0 mg/kg/injection, schedule: Q01DX009 (ip), vehicle: saline with Tween-80): 98 % of control | T/C (dose: 6.0 mg/kg/injection, schedule: Q01DX009 (ip), vehicle: saline with Tween-80): 99 % of control | T/C (dose: 6.25 mg/kg/injection, schedule: Q01DX009 (ip), vehicle: saline with Tween-80): 88 % of control

NC(=O)c1ccccc1C(N)=O
T/C [9]: 100 % of control | T/C [10]: 106 % of control | T/C [18]: 93 % of control

Oc1cc(N2CC2)c(O)cc1N1CC1
T/C (dose: 0.22 mg/kg/injection, schedule: Q01DX009 (ip), vehicle: saline): 123 % of control | T/C (dose: 0.44 mg/kg/injection, schedule: Q01DX009 (ip), vehicle: saline): 188 % of control | T/C (dose: 0.68 mg/kg/injection, schedule: Q01DX009 (ip), vehicle: saline): 156 % of control and 159 % of control

O=C(CCCN1CCC2(CC1)C(=O)NCN2c1ccccc1)c1ccc(F)cc1
T/C [1]: 92 % of control | T/C [2]: 89 % of control | T/C [3]: 94 % of control

O=C1C2C(C(=O)N1c1ccc(OCc3ccccc3)cc1)C1c3ccccc3C2C2CCCCN21 (centres undefined)
T/C (dose: 3.13 mg/kg/injection, schedule: Q01DX009 (ip), vehicle: water): 103 % of control | T/C (dose: 6.25 mg/kg/injection, schedule: Q01DX009 (ip), vehicle: water): 98 % of control | T/C (dose: 12.5 mg/kg/injection, schedule: Q01DX009 (ip), vehicle: water): 104 % of control

COc1cccc2c1C(=O)c1c(O)c3c(c(O)c1C2=O)C[C@@](O)(C(=O)COC(=O)Cc1ccccc1)C[C@@H]3OC1CC(N)C(O)C(C)O1 (some centres undefined)
T/C (dose: 0.5 mg/kg/injection, schedule: Q01DX009 (ip), vehicle: saline with Tween-80): 151 % of control and 186 % of control | T/C (dose: 1.0 mg/kg/injection, schedule: Q01DX009 (ip), vehicle: saline with Tween-80): 165 % of control and 186 % of control | T/C (dose: 2.0 mg/kg/injection, schedule: Q01DX009 (ip), vehicle: saline with Tween-80): 172 % of control and 232 % of control
